Measurements: patent US10624877B2, “Composition and method for treatment of symptoms associated with various skin conditions” (priority 2011, dated 2020)

Tests used:
[1] = concentrations higher than in products; attributed to formaldehyde release; cited from earlier work
[2] = laboratory study; cited from earlier work
skin [3] = conditions: clinical studies; could be related to formaldehyde release; cited from earlier work
skin [4] = conditions: cited from earlier work
S1P lyase = target: T1, S1P lyase (Mus musculus, UniProt Q8R0X7); conditions: when administered to mice; cited from earlier work
T1 sequence (Q8R0X7 1-568): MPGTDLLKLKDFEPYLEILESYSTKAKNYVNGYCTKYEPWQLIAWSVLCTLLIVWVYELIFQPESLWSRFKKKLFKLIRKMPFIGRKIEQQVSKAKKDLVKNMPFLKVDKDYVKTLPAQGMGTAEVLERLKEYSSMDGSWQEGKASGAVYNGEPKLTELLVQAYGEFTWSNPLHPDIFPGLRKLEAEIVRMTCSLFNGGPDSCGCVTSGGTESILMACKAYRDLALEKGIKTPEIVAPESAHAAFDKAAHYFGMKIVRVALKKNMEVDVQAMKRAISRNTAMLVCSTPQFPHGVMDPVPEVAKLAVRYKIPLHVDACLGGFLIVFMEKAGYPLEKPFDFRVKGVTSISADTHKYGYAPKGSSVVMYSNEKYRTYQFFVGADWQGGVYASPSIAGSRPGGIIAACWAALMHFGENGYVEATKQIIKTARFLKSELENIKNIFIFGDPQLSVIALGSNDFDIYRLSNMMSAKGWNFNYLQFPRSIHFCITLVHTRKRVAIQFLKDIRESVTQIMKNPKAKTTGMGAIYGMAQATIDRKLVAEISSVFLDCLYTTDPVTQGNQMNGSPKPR

mice = conditions: administration to mice; cited from earlier work
rats = conditions: administration to rats; cited from earlier work
humans = conditions: studies in humans; cited from earlier work
[5] = Examination of 1.0% THI cream on a mixing plate; format: physicochemical; conditions: 100 mg THI in 10 g base cream (1.0%)
Protocol: A topical formulation containing 100 mg of THI in 10 g of base cream was prepared as follows. […] A smooth cream was obtained by levigation in a marble mortar and pestle. A dime-sized portion of the […] material was then incorporate geometrically with similar-sized portions of base and mixed thoroughly. […] Application of the finished cream to the skin left no residue.

[6] = chronic studies; cited from earlier work
skin [7] = conditions: human exposure studies and clinical experience; cited from earlier work
[8] = subchronic oral, high doses; cited from earlier work
[9] = in vivo; cited from earlier work
[10] = dermal laboratory studies; cited from earlier work
skin [11] = conditions: clinical studies; cited from earlier work
eye = conditions: in vivo; cited from earlier work
[12] = in vivo; cited from earlier work; remark: listed apart in the source

CC1(C)C(=O)N(CO)C(=O)N1CO [DMDM hydantoin, 1,3-Bis(hydroxymethyl)-5,5-dimethylimidazolidine-2,4-dione]
in vitro mutagenicity [1]: positive results in some in vitro mutagenicity studies | adverse effects of oral exposure [2]: did not result in any adverse effects | skin irritation (skin [3]): some observations of skin irritation | absorption from the skin (skin [4]): poorly absorbed from the skin

CC(=O)c1nc(C(O)C(O)C(O)CO)c[nH]1 (stereo not shown) [THI, 2-acetyl-4-tetrahydroxybutylimidazole]
S1P lyase activity (S1P lyase): inhibits S1P lyase activity | accumulation of mature T cells in the thymus (mice): causes the accumulation of mature T cells in the thymus | lymphopenia (mice): induces lymphopenia | accumulation of mature T cells in the thymus (rats): causes the accumulation of mature T cells in the thymus | lymphopenia (rats): induces lymphopenia | immunological effects in humans (humans): no immunological effects | dissolution of THI in the cream base [5]: at least partially dissolving in the cream base

CCCCCCCCCCCCCCCCCC(=O)OCC(O)CO (stereo not shown) [glyceryl stearate, Glyceryl stearate]
carcinogenic effects [6]: no carcinogenic effects | effects on reproduction [6]: no adverse effects on reproduction | sensitization, phototoxicity, photosensitization (skin [7]): non-sensitizing, non-phototoxic and non-photosensitizing

OCCOc1ccccc1 [phenoxyethanol, 2-Phenoxyethanol]
organ weights [8]: increased weights of some organs | toxicity via oral and dermal administration [9]: practically nontoxic | birth defects [10]: did not cause any birth defects | delayed hypersensitivity (skin [11]): did not cause delayed hypersensitivity | phototoxicity (skin [11]): nonphototoxic | primary and cumulative irritation (skin [11]): neither a primary nor a cumulative irritant

Carbomer
eye irritation (eye): no to moderate eye irritation

PEG-100 stearate
changes in growth, histopathologic observations or hematologic values [12]: no significant changes
